These results are taken from ChEMBL document CHEMBL3870326, “Synthesis and structure activity relationships of glycine amide derivatives as novel Vascular Adhesion Protein-1 inhibitors” (Bioorg Med Chem, 2017).

Where only a bound is given, the exact number is not on record here.

One data set in a line: in vitro. The following applies: PAMPA, pH 6.5. In general terms: In PAMPA a lipid-coated filter parts donor from acceptor wells.
Data set [1] can be described thus: Solubility of the compound. It counts as physicochemical.
The conditions of data set [2]: pampa, pH 6.5, 2 h, 50 µM.
Data set [3] is described as follows: Stability in Wistar rat blood assessed as parent compound remaining at 1 ug/ml after 1 hr by LC-MS/MS analysis. It counts as ADME, tissue-based. The following applies: read-out: Stability.
Data set [4] can be described thus: Metabolic stability in liver microsomes (unknown origin). It counts as ADME.
Data set [5] is described as follows: AUC (0 to 24 hrs) in Wistar rat plasma at 1 mg/kg, po by LC-MS/MS analysis. It counts as ADME, organism-based. The arrangement: dose 1 mg/kg, time < 24 hr, route oral.
A short description of data set [6]: AUC (0 to 24 hrs) in Wistar rat plasma at 1 mg/kg, iv by LC-MS/MS analysis. It counts as ADME, organism-based. The arrangement: time < 24 hr, dose 1 mg/kg, route intravenous.
The nature of data set [7]: Volume of distribution at steady state in Wistar rat plasma at 1 mg/kg, iv by LC-MS/MS analysis. It counts as ADME, organism-based. The following applies: read-out: Vdss.
A short description of data set [8]: Half life in Wistar rat plasma at 1 mg/kg, iv by LC-MS/MS analysis. It counts as ADME, organism-based.
The nature of data set [9]: Total clearance in Wistar rat plasma at 1 mg/kg, iv by LC-MS/MS analysis. It counts as ADME, organism-based.
A short description of data set [10]: Cmax in Wistar rat plasma at 1 mg/kg, po by LC-MS/MS analysis. It counts as ADME, organism-based. The arrangement: dose 1 mg/kg, route oral.
Data set [11] in a line: Half life in Wistar rat plasma at 1 mg/kg, po by LC-MS/MS analysis. It counts as ADME, organism-based.
Data set [12] in a line: Oral bioavailability in Wistar rat plasma at 1 mg/kg by LC-MS/MS analysis. It counts as ADME, organism-based.

What is called Papp is the rate of passage across a membrane or cell layer, normalised by area and donor concentration. Higher therefore signals ready permeation. Take `CCNC(=O)c1ccc(-c2cccc(CN(C)C(=O)CN)c2)cc1.Cl`: the Papp at 2 h, 50 µM in the data set “in vitro” is less than 0.2 ×10⁻⁶ cm/s.

On to `Cl.NCC(=O)NCc1cccc(-c2ccccc2)c1`, for which, in data set [1], the solubility result is “Soluble”. The Peff result in data set [2] was “Permeable”. Moreover, the remaining at 1 h, 1 ug/ml in [3] is 33%. Moreover, in data set [4], the Stability result is recorded as “Stable”.

Take `CCN(CC)C(=O)c1ccc(-c2cccc(CN(C)C(=O)CN)c2)cc1.O=C(O)C(=O)O`: the Papp at 2 h, 50 µM in the data set “in vitro” stood at 3.8 ×10⁻⁶ cm/s.

As a reminder, the AUC(0-t) is exposure summed from dosing to a finite time, without extrapolation to infinity. Read a high AUC(0-t) as more exposure. For orientation: half-life means the time needed for the level to fall by half in the phase considered. High values mean slow loss, low ones fast loss. Broadly, the clearance is a measure of how efficiently the substance is removed, as volume per time. Usually Cmax stands for the highest concentration seen after dosing. What is called bioavailability is the share of a dose that reaches the circulation, judged against a reference dose that is usually intravenous. A high value points to good availability. Regarding `CN(Cc1cccc(-c2ccc(N3CCOCC3)cc2)c1)C(=O)CN.O=C(O)C(=O)O`, the AUC(0-t) at 24 h is 69.6 ng·h/mL in [5] and 127 ng·h/mL in data set [6]. In data set [7], the Vd turned out to be 6.06 L/kg. Further, the half-life in data set [8] was 28.2 min; in data set [11], 34.8 min. In data set [9], the clearance was found to be 134 mL/min/kg. The molecule further registered a Papp at 2 h, 50 µM in the data set “in vitro” of 22.1 ×10⁻⁶ cm/s. The molecule further had a Cmax in data set [10] of 73.4 ng/mL. This molecule returned a bioavailability in data set [12] of 54.9%.
